The text below walks through data of patent publication US5596002A, “Method of treating chloroquine-resistant malaria with aminoquinoline derivatives” (Hoffmann-La Roche Inc., priority 1993, dated 1997).

≈ marks a conversion by molar mass, not a printed value. Read-outs that look alike come from different tables or passages of the source.

The subject of test [1] is Plasmodium falciparum, chloroquine-sensitive strain HB3. In words: activity against P. falciparum in vitro, strain HB3. The settings on record: chloroquine-sensitive strain HB3, 48 h-72 h, read-out: IC50 (50% growth inhibition). In kind it is cell-based. As for the experimental part:
(§1) Test method for the determination of the activity against P. falciparum in vitro
(§2) The preparations of the present invention were tested on intraerythrocytary stages of P. falciparum from asynchronous cultures according to the method of Desjardin et al. (Desjardins, R. E. et al: Quantitative assessment of antimalarial activity in vitro by a semiautomated microdilution technique. Antimicrob. Agents Chemother. 16, 710-718, (1979)).
(§3) The culture medium consisted of RPMI 1640 with the addition of 25 mM HEPES, 25 mM NaHCO3, […] neomycin and 10% human serum (A^+). Human-A^+ erythrocytes were used as the P. falciparum host cells. The parasites were maintained at 37° C. in an atmosphere of 3% O2, 4% CO2, 93% N2 and at 95% relative humidity.
(§4) In order to determine the activity, the preparations were dissolved in DMSO, pre-diluted in the culture medium to a suitable starting concentration and subsequently titrated-out into microtitre plates in the 2nd stage over 6-7 steps. After the addition of the parasite culture (0.7% parasitemia in 2.5% erythrocyte suspension), the test plates were incubated under the conditions given above for 48 h-72 h. The parasite growth in the different preparation concentrations was determined using [G-^3 H]-hypoxanthin incorporation compared to untreated control cultures on the same test plates. The 50% growth inhibition (IC50) was calculated according to logit regression analysis from the resulting dosage-activity curve.
(§5) The preparations were tested on at least one chloroquine-resistant and one chloroquine-sensitive P. falciparum strain. Additional sensitive and resistant strains were also included for further characterization.
(§6) Table 1 below contains the IC50 values measured in vitro for the growth inhibition of chloroquine-sensitive and chloroquine-resistant strains of the human pathogenic Plasmodium falciparum.

For test [2], the system named is Plasmodium falciparum, chloroquine-resistant strain K1. In words: activity against P. falciparum in vitro, strain K1. In kind it is cell-based. The following applies: Plasmodium falciparum; chloroquine-resistant strain K1; 48 h-72 h; read-out: IC50 (50% growth inhibition). As to the method:
as §1, §2, §3, §4, §5, §6

The subject of test [3] is Plasmodium falciparum, chloroquine-resistant strain W2 Mef. The test is described as follows: activity against P. falciparum in vitro, strain W2 Mef. Type of test: cell-based. The following applies: 48 h-72 h, read-out: IC50 (50% growth inhibition). As for the experimental part:
as §1, §2, §3, §4, §5, §6

The subject of test [4] is Plasmodium falciparum, chloroquine-resistant strain 7G8. In words: activity against P. falciparum in vitro, strain 7G8. In kind it is cell-based. The settings on record: chloroquine-resistant strain 7G8, 48 h-72 h, read-out: IC50 (50% growth inhibition). As for the experimental part:
as §1, §2, §3, §4, §5, §6

For test [5], the system named is Plasmodium falciparum, chloroquine-sensitive strain NF54. The test is described as follows: activity against P. falciparum in vitro, strain NF54. In kind it is cell-based. The settings on record: Plasmodium falciparum; chloroquine-sensitive strain NF54; 48 h-72 h; read-out: IC50 (50% growth inhibition). As to the method: as §1, §2, §3, §4, §5, §6
The test system of test [6] is Plasmodium falciparum, chloroquine-sensitive strain FCH5C2. The test is described as follows: activity against P. falciparum in vitro, strain FCH5C2. The settings on record: chloroquine-sensitive strain FCH5C2, 48 h-72 h, read-out: IC50 (50% growth inhibition). In kind it is cell-based. As to the method:
as §1, §2, §3, §4, §5, §6

Test [7] relates to Plasmodium falciparum, chloroquine-sensitive strain RFMEF3. In words: activity against P. falciparum in vitro, strain RFMEF3. Type of test: cell-based. The following applies: chloroquine-sensitive strain RFMEF3, 48 h-72 h, read-out: IC50 (50% growth inhibition). As to the method:
as §1, §2, §3, §4, §5, §6

Test [8] deals with Plasmodium falciparum, chloroquine-sensitive strain Ro7 3. In words: activity against P. falciparum in vitro, strain Ro7 3. In kind it is cell-based. The following applies: chloroquine-sensitive strain Ro7 3, 48 h-72 h, read-out: IC50 (50% growth inhibition). As for the experimental part: as §1, §2, §3, §4, §5, §6
In test [9] the test system is Plasmodium falciparum, chloroquine-resistant strain Indo. In words: activity against P. falciparum in vitro, strain Indo. In kind it is cell-based. The settings on record: chloroquine-resistant strain Indo, 48 h-72 h, read-out: IC50 (50% growth inhibition). As for the experimental part:
as §1, §2, §3, §4, §5, §6

Test [10] relates to Plasmodium falciparum, chloroquine-resistant strain ItG2 F6. The test is described as follows: activity against P. falciparum in vitro, strain ItG2 F6. Type of test: cell-based. The settings on record: chloroquine-resistant strain ItG2 F6, 48 h-72 h, read-out: IC50 (50% growth inhibition). As for the experimental part: as §1, §2, §3, §4, §5, §6
The test system of test [11] is Plasmodium falciparum, chloroquine-resistant strain W2. In words: activity against P. falciparum in vitro, strain W2. In kind it is cell-based. The settings on record: chloroquine-resistant strain W2, 48 h-72 h, read-out: IC50 (50% growth inhibition). As for the experimental part: as §1, §2, §3, §4, §5, §6
Test [12] concerns Plasmodium falciparum, chloroquine-resistant strain RFCR3. In words: activity against P. falciparum in vitro, strain RFCR3. In kind it is cell-based. The following applies: chloroquine-resistant strain RFCR3, 48 h-72 h, read-out: IC50 (50% growth inhibition). As for the experimental part: as §1, §2, §3, §4, §5, §6
Test [13] has as its system Plasmodium berghei (strain ANKA). In words: activity against Plasmodium berghei in vivo (infected mice). The following applies: mice; for inhibition in vivo at 10 mg/kg: 48 hours after treatment (D+3). As to the method:
Test method for the determination of the activity against Plasmodium berghei in vivo
The preparations according to the present invention were tested on mice infected with malaria pathogens (Plasmodium berghei). Male albino mice (IBM:MORO(SPF), FUELLINSDORF) weighing about 25 g were used as the test animals. They were kept in climatized rooms at 21°-22° C. in groups of 5 animals per cage. They received ad libitum a diet feed with a low PABA content ("NAFAG FUTTER" No. 9009 PAB-45, PABA content 45 mg/kg) and drinking water. On the first day of the test (D0) the test animals were infected with Plasmodium berghei (strain ANKA). For this there was used heparinized blood of a donor mouse with about 30% parasitemia, which was diluted with physiological saline such that it contains 10^8 parasitized erythrocytes per ml. 0.2 ml of this suspension was injected intravenously (i.v.) into the mice to be treated and into the control mice. In untreated control animals the parasitemia normally reaches 30-40% on the third day after the infection (D+3) and the test animals die between days +5 and +7.
The substances to be tested were dissolved or suspended in distilled water or in a mixture of 7% Tween 80, 3% alcohol (96%) and water. Usually, 0.25 ml of this solution or suspension was administered once subcutaneously and perorally to groups of 5 test animals. Treatment was effected 24 hours after the infection. 10 control animals were treated in the same manner with solvent or suspension medium per test.
All substances were tested in a first test in a single dosage of 10 mg/kg. Only those substances which in this test (10 mg/kg) had shown a parasitaemia reduction of 90% were used for the titration.
48 hours after the treatment (D+3), blood smears were prepared from all animals using blood from tail veins and were stained with Giemsa. The average erythrocyte infection rate (parasitemia in %) in the control groups as well as in the groups which had been treated with the test compounds was determined by counting under a microscope. The difference in the average values of the infection rates of control group (100%) and treated groups was calculated and expressed as a percentage reduction (GI %). The ED50 or ED90 was determined mathematically by means of the JMP programme (nonlinear fit). The ED50 (ED90) in mg/kg is that dose which after single administration reduces the average erythrocyte infection rate by 50% (90%) in comparison to the control group.
Table 2 below contains data with respect to the activity measured against Plasmodium berghei in mice: GI % is the percentage reduction in the parasitemia after a single dose of 10 mg/kg of the test substance administered perorally (po) or subcutaneously (sc); ED50 and ED90 are the effective doses of the test substance administered perorally or subcutaneously.

For `CCC1CCCCN1CCNc1ccnc2cc(Cl)ccc12` (racemic) [Example 27, (RS)-(7-Chloro-quinolin-4-yl)-[2-(2-ethyl-piperidin-1-yl)-ethyl]amine], the half-maximal inhibitory concentration (IC50) in [1] came to 9 ng/mL (≈ 0.0283 µM); in [2] it was 18 ng/mL (≈ 0.0566 µM); in test [3] it was 14 ng/mL (≈ 0.044 µM); in test [4], 7 ng/mL (≈ 0.022 µM); in test [5] it was 8 ng/mL (≈ 0.0252 µM); in test [6], 10 ng/mL (≈ 0.0315 µM). Besides, the concentration for half-maximal inhibition (IC50) was found to be 7 ng/mL (≈ 0.022 µM) in [7]; 3 ng/mL (≈ 0.00944 µM) in test [8]; 9 ng/mL (≈ 0.0283 µM) in test [9]; 7 ng/mL (≈ 0.022 µM) in test [10]; 19 ng/mL (≈ 0.0598 µM) in test [11]; 15 ng/mL (≈ 0.0472 µM) in [12].
In the case of `Clc1ccc2c(NCCN3CCCCC3)ccnc2c1` [Example 8, (7-Chloro-quinolin-4-yl)-(2-piperidin-1-yl-ethyl)-amine], the IC50 in [1] amounted to 7 ng/mL (≈ 0.0242 µM); in test [2], 11 ng/mL (≈ 0.038 µM); in test [3] it was 9 ng/mL (≈ 0.0311 µM); in test [4], 7 ng/mL (≈ 0.0242 µM); in test [5] it was 5 ng/mL (≈ 0.0173 µM); in test [6] it was 9 ng/mL (≈ 0.0311 µM). For the same compound, the IC50 was 9 ng/mL (≈ 0.0311 µM) in test [7]; 4 ng/mL (≈ 0.0138 µM) in test [8]; 5 ng/mL (≈ 0.0173 µM) in [9]; 4 ng/mL (≈ 0.0138 µM) in test [10]; 11 ng/mL (≈ 0.038 µM) in test [11]; 10 ng/mL (≈ 0.0345 µM) in test [12].
With `Clc1ccc2c(NCCCN3CCCC3)ccnc2c1` [Example 17, (7-Chloro-quinolin-4-yl)-(3-pyrrolidin-1-yl-propyl)-amine], the 50% inhibitory concentration (IC50) worked out at 6 ng/mL (≈ 0.0207 µM) in test [1]; 15 ng/mL (≈ 0.0518 µM) in [2]; 14 ng/mL (≈ 0.0483 µM) in test [4]; 3 ng/mL (≈ 0.0104 µM) in test [5]; 4 ng/mL (≈ 0.0138 µM) in test [6]; 8 ng/mL (≈ 0.0276 µM) in test [7]. For the same compound, the concentration for half-maximal inhibition (IC50) stood at 6 ng/mL (≈ 0.0207 µM) in test [8]; 7 ng/mL (≈ 0.0242 µM) in test [9]; 7 ng/mL (≈ 0.0242 µM) in test [10]; 14 ng/mL (≈ 0.0483 µM) in [11]; 11 ng/mL (≈ 0.038 µM) in [12]. The ED50 in test [13] (single administration po, dose reducing average erythrocyte infection rate by 50%, read-out: ED50 (po)) was 4.6 mg/kg. Also, the inhibition in vivo at 10 mg/kg worked out at 95% in test [13] (single dose 10 mg/kg po, read-out: GI % at 10 mg/kg (po): percentage reduction in the parasitemia) and 99% in [13] (single dose 10 mg/kg sc, read-out: GI % at 10 mg/kg (sc): percentage reduction in the parasitemia).
On to `CCN(CC)CCNc1ccnc2cc(C(F)(F)F)ccc12` [Example 21, N1,N1 -Diethyl-N2-(7-trifluoromethyl-quinolin-4-yl)-ethane-1,2-diamine], for which the IC50 stood at 33 ng/mL (≈ 0.106 µM) in test [1]; 34 ng/mL (≈ 0.109 µM) in test [2]; 49 ng/mL (≈ 0.157 µM) in test [4]; 21 ng/mL (≈ 0.0674 µM) in [5]; 35 ng/mL (≈ 0.112 µM) in test [6]; 35 ng/mL (≈ 0.112 µM) in test [7]. The IC50 in test [8] is 28 ng/mL (≈ 0.0899 µM); in test [9], 31 ng/mL (≈ 0.0996 µM); in test [10], 28 ng/mL (≈ 0.0899 µM); in test [11], 57 ng/mL (≈ 0.183 µM); in [12] it was 54 ng/mL (≈ 0.173 µM).
